From patent US20260325655A1, “DECREASING THE INTRINSICALLY DISORDERED PROTEIN ALPHA-SYNUCLEIN’S LEVELS BY TARGETING ITS STRUCTURED MRNA WITH A RIBONUCLEASE TARGETING CHIMERA” (University of Florida Research Foundation, Incorporated, priority 2023, published 2026)

Columns and labels:
[1] = target: SNCA IRE; test: MST binding affinity for SNCA IRE (A bulge model RNA); details: microscale thermophoresis; Cy5-labeled RNA
Experimental: Binding Affinity Measurements: Microscale Thermophoresis (MST). Binding affinity measurements were performed on a Monolith NT.115 MST system (NanoTemper Technologies) with Cy5-labeled oligonucleotides. Briefly, Cy5-labeled RNA (5 nM) was prepared in 1× Folding Buffer and folded by heating at 60° C. for 5 min and then slowly cooling to room temperature. After cooling, Tween-20 was added to a final concentration of 0.1% (v/v). Compound solutions were prepared separately in 30 μL of 1× Assay Buffer at a final concentration of 5 μM (1% (v/v) DMSO), followed by 1:1 serial dilutions in 1× Assay Buffer. RNA and compound solutions were then mixed 1:1 by volume.
Samples were incubated for 20 min at room temperature and then loaded into premium capillaries (NanoTemper Technologies, Cat #MO-K025). The following parameters were used for MST measurement: 5-20% LED power (adjusted to keep fluorescence intensity between 8000 and 18000), 80% MST power, Laser-On time=30 s, and Laser-Off time=5 s. The resulting data were analyzed by calculating the change in thermophoresis as a function of compound concentration and fitted by Equation (3) in MST analysis software (NanoTemper Technologies) to yield the dissociation constant (Kd):
where F is the concentration of fluorescently labeled RNA; unbound and bound refer to the thermophoresis signal at completely unbound and bound state of RNA, respectively; c is the concentration of the compound; f (c) is the thermophoresis signal at compound concentration of c; Kd is the dissociation constant.

[2] = test system: seven proteins encoded by genes enriched by Syn-CLIP; test: Western blot validation of seven proteins encoded by transcripts enriched by Syn-CLIP; type: cell-based, human; details: 2 μM, 48 h; SH-SY5Y
Experimental: Western blotting. After 48 h, cells were gently washed with ice-cold 1× DPBS, and total protein was extracted with Mammalian Protein Extraction Reagent (M-PER, Thermo Scientific) per the manufacturer's protocol. After quantifying protein concentration by using BCA Protein Assay Kit (Pierce Biotechnology), ~30 μg of total protein for each sample was separated using a 10% SDS-polyacrylamide gel and transferred onto a PVDF membrane. The membrane was fixed with 0.4% paraformaldehyde (pH=7.0) for 30 min at room temperature^9 and then blocked with 5% (w/v) non-fat dry milk in 1× TBST (1× TBS containing 0.1% Tween-20) for 1 h at room temperature. […] After washing 10 min each with 1× TBST three times, immunocomplex signals of each protein were detected by using a SuperSignal West Pico Chemiluminescent Substrate (Pierce Biotechnology) according to the manufacturer's protocol. The memebrane was then stripped by using 1× Stripping Buffer (200 mM glycine, pH 2.2, 4 mM SDS, 1% (v/v) Tween 20) at room temperature for 15 min, followed by blocking with 5% (w/v) non-fat dry milk at room temperature for 1 h. β-actin was used to normalize the levels of all proteins, measured by incubating with a primary antibody for β-actin (1:5000, 3700S from Cell Signaling Technology) at 4° C. overnight. […]

| Kd [1] | SMILES | effect on seven proteins by Western blot [2] |
| --- | --- | --- |
| 103 ± 10 nM | CCOC(=O)C1=C(Nc2ccccc2)S/C(=C\c2ccc(OCCOCCOCCOCCNC(=O)CCCOc3ccc(-n4c(SCC(=O)Nc5ccc6cn[nH]c6c5)nnc4-c4ccncc4)cc3)c(O)c2)C1=O [Syn-RiboTAC] | did not affect these seven proteins |
| 66 ± 4 nM | O=C(CSc1nnc(-c2ccncc2)n1-c1ccc(Br)cc1)Nc1ccc2cn[nH]c2c1 [Synucleozid-2.0] | did not affect these seven proteins |
